{"source": "patent US12029732B2", "about": "“Treatment of vascular and lymphatic disease” (priority 2019, dated 2024)", "key": {"[1]": {"system": "RP27M2 (Rpl27a^low/+:Mdm2^+/−) mice", "test": "PFT / c-PFT treatment of pregnant mice carrying RP27M2 embryos (high-p53 lymphedema model)", "type": "in vivo, mouse", "conditions": "for ratio of mutant pups at birth: RP27M2; for ratio of mutant pups at birth / edema: mothers treated daily from E11.5; for cutaneous hemorrhaging / embryonic (in utero) lethality: RP27M2 mutants, mothers treated daily from E11.5 until delivery; for edema: RP27M2 pups", "description": "(§1) All mice were maintained on a C57BL/6J background. For timed pregnancies, the first day of observed plug were recorded as day 0.5 post-coitum or embryonic day 0.5 (E0.5). Mice haploinsufficient for the ribosomal protein L27a (Rpl27^low/+) are crossed with Mdm2 or Mdm4 heterozygous mice (Mdm2^+/− or Mdm4^+/−) to generate WT, Rpl27^low/+, Mdm2^+/−, Rpl27^low/+:Mdm2^+/− (RP27M2), Mdm4^+/−, and Rpl27^low/+:Mdm4^+/− mice (RP27M4). To generate mice on a p53-deficient background, we crossed Rpl27^low/+ mice to Mdm2^−/−:p53^−/− or Mdm4^−/−:p53^−/− mice. We therefore obtained RP27M2:p53^+/− mice and RP27M4:p53^+/− mice (FIG. 8). Genotypes were determined by PCR analysis of extracted DNA from tails using published primer sets for Mdm2, Mdm4, and p53. The sex of embryos was determined by detection of Sry and Raspn genes by PCR. Animal care and euthanasia guidelines of the Colorado Institutional Animal Care and Use Committee were followed for all animal work.\n(§2) A 10 mM stock of Pifithrin-α (PFT-α, Selleck Bio, cat. S2929) was diluted 1:10 in 1×PBS, protected from light and used instantly. Pregnant mice were injected intraperitoneally from E11.5 to E16.5 and subcutaneously from E17.5 until delivery at 2.2 mg/kg of weight. Animal were monitored daily post-treatment and weights were recorded after delivery.\n(§3) Tissues were fixed in 4% neutral buffered paraformaldehyde, processed, and embedded in paraffin by the UCD Research Histology core. Sagittal sections (5 μm) were subjected to immunofluorescence staining (IF) as previously described and according to the manufacturer's recommendations. The primary antibodies used for IF were monoclonal mouse Prox-1 (1:50, P21936, Thermofisher Scientific, Massachusetts, USA), monoclonal rabbit Lyve-1 (1:100, ab14917, Abcam Inc., California, USA), polyclonal rabbit Ki-67 (1:1000, VP-K451, Vector Laboratories, California, USA) and mouse monoclonal p21 (1:100, sc-6246, Santa Cruz Biotechnology, California, USA) antibodies. We used anti-rabbit or anti-mouse Alexa Fluor 594 or Alexa Fluor 488 conjugated secondary antibodies (1:1000, Invitrogen, California, USA), captured the images on a Nikon Eclipse 90i, and quantified using the ImageJ software. Pediatric lymphatic edema was categorized using the ISSVA Classification of Vascular Anomalies and confirmed by PdPn (D2-40 antibody, Ventana or RnD Systems AF3670) staining. IHC for p53 on human tissues were performed using the D-07 antibody (Ventana) on automated strainers (Ventana Ultra) following the manufacturer's recommendations and Clinical Laboratory Improvement Amendments (CLIA) certified procedures. For the visualization of the three-dimensional lymphatic vasculature, murine skin were fixed in 4% Paraformaldehyde (PFA) for 2-4 hours at room temperature for whole mount staining. Tissues were then subjected to procedures as published. H&E was performed following Harris protocols for staining.\n(§4) To confirm the contribution of p53 overexpression to lymphedema, a pharmacological approach was used by testing a known reversible p53 negative modulator, Pifithrin-α (PFT). For this, time mating of Rpl27^low/+ mice was set up with Mdm2^+/−, or Mdm4^+/−, mice. Females carrying both models were injected intraperitoneally (IP) daily from E11.5 to […] and their weight gain was recorded until delivery. […] 100% of PFT-RP27M4 mice died did shortly after birth. […] It was speculated that the extent of phenotypic rescue at the low PFT dose used may be determined by the severity of the presentation. Therefore, increasing the amount of PFT given to the RP27M4 carrying mothers may allow for RP27M4 pups to survive."}, "[2]": {"system": "RP27M4 (Rpl27a^low/+:Mdm4^+/−) mice", "test": "PFT / c-PFT treatment of pregnant mice carrying RP27M4 embryos (high-p53 lymphedema model)", "type": "in vivo, mouse", "conditions": "for ratio of mutant pups at birth: RP27M4; for ratio of mutant pups at birth / edema: mothers treated daily from E11.5; for cutaneous hemorrhaging / embryonic (in utero) lethality: RP27M4 mutants, mothers treated daily from E11.5 until delivery; for edema: RP27M4 pups", "description": "as §1, §2, §3, §4"}, "[3]": {"conditions": "DMSO; cited from earlier work"}}, "note": "“Also recorded” adds a separate entry of the source.", "data": [{"smiles": "Br.Cc1ccc(C(=O)Cn2c3c(sc2=N)CCCC3)cc1", "note": "[PFT, 2-[2-Imino-4,5,6,7-tetrahydrobenzothiazol-3-yl]-1-p-tolylethanone hydrobromide]", "values": [{"measurement": "appearance of treated pups compared with WT", "setting": "[1]; PFT-RP27M2 mice", "result": "indistinguishable from WT"}, {"measurement": "pups survived until at least 10 days old", "setting": "[1]; PFT-RP27M2 mice, 2.2 mg/kg to mothers", "result": 100, "unit": "%"}, {"measurement": "subcutaneous edema, H&E staining of dorsal skin", "setting": "[1]; RP27M2, P0 skin", "result": "no evident subcutaneous edema"}, {"measurement": "lymphatic vessel size, Lyve-1 staining of skin", "setting": "[1]; RP27M2, postnatal day 0 (P0)", "result": "reverted to a normal size"}, {"measurement": "ratio of mutant pups at birth", "setting": "[1]; hydrobromide", "result": "born following a Mendelian ratio; also recorded: born at a Mendelian ratio"}, {"measurement": "ratio of mutant pups at birth", "setting": "[1]; listed as PFT-a, hydrobromide", "result": "born at Mendelian ratio"}, {"measurement": "cutaneous hemorrhaging", "setting": "[1]; hydrobromide", "result": "reversed symptoms of edema and hemorrhaging; also recorded: eliminates visible skin hemorrhaging; also recorded: no signs of hemorrhaging"}, {"measurement": "embryonic (in utero) lethality", "setting": "[1]; hydrobromide", "result": "rescued; also recorded: rescues in utero lethality"}, {"measurement": "cutaneous hemorrhaging", "setting": "[1]; listed as PFT-a, hydrobromide", "result": "do not exhibit cutaneous hemorrhaging"}, {"measurement": "edema", "setting": "[1]; hydrobromide", "result": "reversed symptoms of edema and hemorrhaging"}, {"measurement": "edema", "setting": "[1]; listed as PFT-a, hydrobromide", "result": "do not exhibit cutaneous hemorrhaging and severe edema"}, {"measurement": "pups died shortly after birth", "setting": "[2]; PFT-RP27M4 mice, 2.2 mg/kg to mothers", "result": 100, "unit": "%"}, {"measurement": "subcutaneous edema, H&E staining of dorsal skin", "setting": "[2]; RP27M4, P0 skin", "result": "no evident subcutaneous edema"}, {"measurement": "lymphatic vessel size, Lyve-1 staining of skin", "setting": "[2]; RP27M4, postnatal day 0 (P0)", "result": "reverted to a normal size"}, {"measurement": "ratio of mutant pups at birth", "setting": "[2]; hydrobromide", "result": "born following a Mendelian ratio; also recorded: born at a Mendelian ratio"}, {"measurement": "ratio of mutant pups at birth", "setting": "[2]; listed as PFT-a, hydrobromide", "result": "born at Mendelian ratio"}, {"measurement": "cutaneous hemorrhaging", "setting": "[2]; hydrobromide", "result": "reversed symptoms of edema and hemorrhaging; also recorded: eliminates visible skin hemorrhaging; also recorded: no signs of hemorrhaging"}, {"measurement": "embryonic (in utero) lethality", "setting": "[2]; hydrobromide", "result": "rescued; also recorded: rescues in utero lethality"}, {"measurement": "cutaneous hemorrhaging", "setting": "[2]; listed as PFT-a, hydrobromide", "result": "do not exhibit cutaneous hemorrhaging"}, {"measurement": "postnatal survival", "setting": "[2]; RP27M4 pups after PFT treatment of mothers", "result": "did not survive past the first day"}, {"measurement": "edema", "setting": "[2]; hydrobromide", "result": "reversed symptoms of edema and hemorrhaging; also recorded: considerably reduced"}, {"measurement": "edema", "setting": "[2]; listed as PFT-a, hydrobromide", "result": "do not exhibit cutaneous hemorrhaging and severe edema"}, {"measurement": "solubility", "setting": "[3]", "result": "soluble"}]}, {"smiles": "Br.Cc1ccc(-c2cn3c4c(sc3n2)CCCC4)cc1", "note": "[c-PFT, Cyclic pifithrin-α hydrobromide]", "values": [{"measurement": "cutaneous hemorrhaging", "setting": "[1]", "result": "eliminates visible skin hemorrhaging"}, {"measurement": "embryonic (in utero) lethality", "setting": "[1]; hydrobromide", "result": "rescued; also recorded: rescues in utero lethality"}, {"measurement": "cutaneous hemorrhaging", "setting": "[2]", "result": "eliminates visible skin hemorrhaging"}, {"measurement": "embryonic (in utero) lethality", "setting": "[2]; hydrobromide", "result": "rescued; also recorded: rescues in utero lethality"}]}]}
